Tests used:
Format in all cases: cell-based
[1] = test system: Human epidermal melanoma cells A375; assay: Visible light induced hyperpigmentation in vitro; conditions: for Inhibition vs visible light induced / melanin: visible light 480 J/cm2, A375 cells; for melanin: treated 48 h before and after irradiation
Experimental: Human epidermal melanoma cells A375 were cultured in 6-well plates. The cells were exposed to visible light (480 J/cm2) with Hydrosun 750 equipped with KG1 filter. 48 h prior to and past to the irradiation the cells were treated with test compounds in non-cytotoxic concentrations. Melanocytes were lysed in a solution of NaOH. Melanin was quantified by measurement of absorbance at 405 nm and calculation based on a melanin standard curve.

[2] = test system: Human epidermal melanoma cells A375; assay: Basal melanin formation in vitro; conditions: for melanin: basal
[3] = test system: ex vivo human skin explants; assay: Melanin formation after visible light irradiation on ex vivo human skin; conditions: visible light 480 J/cm2; for Inhibition vs Placebo: ex vivo human skin; for % of melanin: topical on skin explant phototype IV, Fontana-Masson stain, image analysis
Experimental: The below formulations were applied on ex vivo human skin explants from abdominal surgery of a donor with phototype IV (Fitzpatrick scale). 48 h after the formulations were removed with a cotton pad. Skin explants were exposed to visible light (480 J/cm2) with Hydrosun 750 equipped with KG1 filter. Formulations were reapplied afterwards. 48 h later skin sections were prepared and melanin was stained by Fontana-Masson stain. Quantification of melanin was done by image analysis.

NCCC(=O)N[C@@H](Cc1cnc[nH]1)C(=O)O [L-carnosine]
Inhibition vs visible light induced ([1]; 0.001% L-carnosine): 110%
melanin ([1]; 0.001% L-carnosine): 0.5601 µg
Inhibition vs visible light induced ([1]; 0.00316% L-carnosine): 113%
melanin ([1]; 0.00316% L-carnosine): 0.5478 µg
Inhibition vs visible light induced ([1]; 0.01% L-carnosine): 81%
melanin ([1]; 0.01% L-carnosine): 0.6594 µg
Inhibition vs visible light induced ([1]; 0.0316% L-carnosine): 90%
melanin ([1]; 0.0316% L-carnosine): 0.6296 µg
visible light induced hyperpigmentation ([1]; A375 cells): inhibits significantly
effect on basal melanin formation [2]: no effect
melanin ([2]; 0.001% L-carnosine): 0.6845 µg
melanin ([2]; 0.00316% L-carnosine): 0.6186 µg
Inhibition vs Placebo ([3]; 0.05% L-carnosine (formulation C)): 91.1%
% of melanin ([3]; 0.05% L-carnosine (formulation C, Table 3)): 35.74 ± 2.6%
Inhibition vs Placebo ([3]; 0.2% L-carnosine (formulation B)): 92.2%
% of melanin ([3]; 0.2% L-carnosine (formulation B, Table 3)): 35.44 ± 2.3%
